Test results: the NIST ThermoML archive (doi:10.1016/j.jct.2017.08.004)

Experiment: molar heat capacity at constant pressure
Details: 101.33 kPa, Crystal, relaxation calorimetry

OC[C@@H](O)C(O)[C@H](O)CO [D-arabitol]
Details	molar heat capacity at constant pressure [J/K/mol]
1 K	0.0009451
1.937 K	0.004787
2 K	0.005256
2.125 K	0.006243
2.35 K	0.008303
2.6 K	0.01105
2.887 K	0.01495
3 K	0.01673
3.199 K	0.02023
3.546 K	0.02753
3.931 K	0.03744
4 K	0.04001
4.359 K	0.05185
4.836 K	0.07292
5 K	0.08105
5.366 K	0.1017
5.953 K	0.1443
6 K	0.1475
6.605 K	0.205
7 K	0.2508
7.334 K	0.2964
8 K	0.4038
8.14 K	0.43
9 K	0.6157
9.034 K	0.6226
10 K	0.8917
10.11 K	0.9222
11.21 K	1.313
12.44 K	1.849
13.81 K	2.558
15 K	3.255
15.35 K	3.473
17.03 K	4.645
18.91 K	6.093
20 K	6.963
21.01 K	7.823
23.33 K	9.878
25 K	11.45
25.91 K	12.28
28.73 K	15.02
30 K	16.29
31.9 K	18.17
35 K	21.27
35.42 K	21.72
39.33 K	25.68
40 K	26.29
43.65 K	29.96
45 K	31.26
48.46 K	34.52
50 K	36.09
53.77 K	39.56
55 K	40.76
59.7 K	45.1
60 K	45.36
65 K	49.82
66.28 K	51.01
70 K	54.16
73.58 K	57.16
75 K	58.37
80 K	62.48
81.67 K	64.04
85 K	66.48
90 K	70.37
90.67 K	71
95 K	74.17
100 K	77.87
100.64 K	77.78
110 K	85.02
110.77 K	85.2
120 K	91.85
120.77 K	92.62
130 K	98.42
130.79 K	99.38
140 K	104.78
140.95 K	105.44
150 K	110.97
151.07 K	111.74
160 K	117.04
161.18 K	117.79
